This note sets out measurements from US7727988B2, “Azabicyclo[3.1.0]hex-3-yl}alkyl)pyrimidinedione” (Glaxo Group Limited, priority 2006, dated 2010).

Structures are written as SMILES.

In the assay the target is T1, dopamine D3 receptor (Homo sapiens, UniProt P35462).
T1 construct: host or cells: Chinese Hamster Ovary (CHO) cells, membranes
T1 sequence (P35462 whole entry, species assumed): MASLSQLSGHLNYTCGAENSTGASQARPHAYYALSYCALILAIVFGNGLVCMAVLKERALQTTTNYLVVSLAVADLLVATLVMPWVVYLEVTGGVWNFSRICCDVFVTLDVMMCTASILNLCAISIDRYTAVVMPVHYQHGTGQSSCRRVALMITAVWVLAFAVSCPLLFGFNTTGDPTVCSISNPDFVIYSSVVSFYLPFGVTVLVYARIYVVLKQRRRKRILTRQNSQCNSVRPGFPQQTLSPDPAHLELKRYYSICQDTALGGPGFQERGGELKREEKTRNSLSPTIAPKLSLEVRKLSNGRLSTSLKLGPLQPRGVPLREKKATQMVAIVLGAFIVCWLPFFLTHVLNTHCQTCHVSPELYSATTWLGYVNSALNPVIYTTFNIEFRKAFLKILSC
Put plainly: GTPS scintillation proximity assay (GTPS-SPA), CHO_D3 membranes, antagonist format. In kind it is biochemical. As to the method: Functional potency of compounds of this invention can be measured by the following GTPS scintillation proximity assay (GTPS-SPA). Cells used in the study are Chinese Hamster Ovary (CHO) Cells. • Cell Line • CHO_D2 • CHO_D3 • Dopamine CHO D3 (Biocat no 1060) transduced with bacmam G0 G-protein (Biocat no 97886)
All steps are performed at 4° C. Cell membranes are prepared as follows. Cell pellets are resuspended in 10 volumes of 50 mM HEPES, 1 mM EDTA pH 7.4, using KOH. Cells are homogenised within a glass waring blender for 2 bursts of 15 secs in 200 mls of buffer (50 mM HEPES, 1 mM leupeptin, 25 μg/ml bacitracin, 1 mM EDTA, 1 mM PMSF, 2 μM Pepstatin A). (the latter 2 reagents added as fresh ×100 and ×500 stocks respectively in ethanol). The blender is plunged into ice for 5 mins after the first burst and 10-40 mins after the final burst to allow foam to dissipate. The material is then spun at 500 g for 20 mins and the supernatant spun for 36 mins at 48.000 g. The pellet is resuspended in the same buffer as above but without PMSF and Pepstatin A. The material is then forced through a 0.6 mm needle, made up to the required volume, (usually ×4 the volume of the original cell pellet), aliquoted and stored frozen at −80° C.
The final top concentration of test drug is 3 μM in the assay and 11 points serial dilution curves 1:4 in 100% DMSO are carried out using a Biomek FX. The test drug at 1% (0.5 ul) total assay volume (TAV) is added to a solid, white Greiner polypropylene 384-well assay plate. 50% TAV (25 μl) of precoupled (for 60 mins at RT) membranes, 5 μg/well, and Wheatgerm Agglutinin Polystyrene Scintillation Proximity Assay beads (RPNQ0260, Amersham), 0.25 mg/well, in 20 mM HEPES (pH 7.4, 100 mM NaCl, 10 mM MgCl2), 60 μg/mL saponin and 30 uM GDP is added. The third addition is a 20% TAV (10 ul) addition of either buffer, (agonist format) or EC80 final assay concentration of agonist, Quinelorane, prepared in assay buffer (antagonist format). The assay is started by the addition of 29% TAV (15 ul) of GTP[35S] 0.38 nM final (37 MBq/mL, 1160 Ci/mmol, Amersham). After all additions assay plates are spun down for 1 min at 1,000 rpm. The final assay cocktail ([…]) is incubated at room temperature to equilibrate for 3-6 hours before reading on a ViewLux™ (613/55 filter) luminescence imager 5 min/plate.
The effect of the test drug over the basal generates fpKi values of test drug are calculated from the IC50 generated by “antagonist format” experiment, using Cheng & Prusoff equation: fKi=IC50/1+([A]/EC50) where: [A] is the concentration of the agonist Quinelorane in the assay and EC50 is the Quinelorane EC50 value obtained in the same experiment. fpKi is defined as −logfKi. • pKi results are only estimated to be accurate to about 0.3-0.5.
For the compound `Cc1ccsc1-c1cn(CCCCN2C[C@@H]3C[C@]3(c3ccc(C(F)(F)F)cc3)C2)c(=O)[nH]c1=O.Cl` [Example E16, 5-(3-methyl-2-thienyl)-1-(4-{(1S,5R)-1-[4-(trifluoromethyl)phenyl]-3-azabicyclo[3.1.0]hex-3-yl}butyl)-2,4(1H,3H)-pyrimidinedione hydrochloride], the “Selectivity for D3 over D2 receptors” value is reported as 100 fold. Turning to `Cc1cc(-c2cn(CCCCN3C[C@@H]4C[C@]4(c4ccc(C(F)(F)F)cc4)C3)c(=O)[nH]c2=O)ccn1.Cl.Cl` [Example E28, 5-(2-methyl-4-pyridinyl)-1-(4-{(1S,5R)-1-[4-(trifluoromethyl)phenyl]-3-azabicyclo[3.1.0]hex-3-yl}butyl)-2,4(1H,3H)-pyrimidinedione dihydrochloride], the “Selectivity for D3 over D2 receptors” value stood at 316 fold. On to `Cc1cccc(-c2cn(CCCN3C[C@@H]4C[C@]4(c4ccc(C(F)(F)F)cc4)C3)c(=O)[nH]c2=O)n1.Cl.Cl` [Example E30, 5-(6-methyl-2-pyridinyl)-1-(3-{(1S,5R)-1-[4-(trifluoromethyl)phenyl]-3-azabicyclo[3.1.0]hex-3-yl}propyl)-2,4(1H,3H)-pyrimidinedione dihydrochloride], for which the “Selectivity for D3 over D2 receptors” value is listed as 199 fold. For `Cl.O=c1[nH]c(=O)n(CCCN2C[C@@H]3C[C@]3(c3ccc(C(F)(F)F)cc3)C2)cc1-c1ccccc1` [Example E9, 5-phenyl-1-(3-{(1S,5R)-1-[4-(trifluoromethyl)phenyl]-3-azabicyclo-[3.1.0]hex-3-yl}propyl)-2,4(1H,3H)-pyrimidinedione hydrochloride], the “Selectivity for D3 over D2 receptors” value stood at 199 fold.
